Bridges are numbered along the chain shown (N, C = ends). Where no end group is shown, it is not given here. [ ]: non-standard residue; d: D form. S5 = C=CCCC[C@](C)(N)C(=O)O
Legend:
[1] = tested on: HCT116 xenograft tumor (p110α H1047R); assay: Peptide treatment of HCT116 xenograft tumors in athymic nude mice; assay type: in vivo; conditions: intratumoral 250 μg daily for 14 days
[2] = target: T1, IRS1-p110α E545K interaction in DLD1 cells (Homo sapiens, UniProt P35568); assay: Co-IP after peptide added to culture medium of p110α E545K 3×FLAG KI DLD1 cells; assay type: cell-based; set-up: dose or concentration left out as unconfirmed; conditions: peptide added to cell culture medium for 16 hr
T1 construct: endogenous in cells; host or cells: DLD1 p110α E545K 3×FLAG knock-in cells (rAAV gene targeting of the endogenous allele)
T1 sequence (P35568 1-1242): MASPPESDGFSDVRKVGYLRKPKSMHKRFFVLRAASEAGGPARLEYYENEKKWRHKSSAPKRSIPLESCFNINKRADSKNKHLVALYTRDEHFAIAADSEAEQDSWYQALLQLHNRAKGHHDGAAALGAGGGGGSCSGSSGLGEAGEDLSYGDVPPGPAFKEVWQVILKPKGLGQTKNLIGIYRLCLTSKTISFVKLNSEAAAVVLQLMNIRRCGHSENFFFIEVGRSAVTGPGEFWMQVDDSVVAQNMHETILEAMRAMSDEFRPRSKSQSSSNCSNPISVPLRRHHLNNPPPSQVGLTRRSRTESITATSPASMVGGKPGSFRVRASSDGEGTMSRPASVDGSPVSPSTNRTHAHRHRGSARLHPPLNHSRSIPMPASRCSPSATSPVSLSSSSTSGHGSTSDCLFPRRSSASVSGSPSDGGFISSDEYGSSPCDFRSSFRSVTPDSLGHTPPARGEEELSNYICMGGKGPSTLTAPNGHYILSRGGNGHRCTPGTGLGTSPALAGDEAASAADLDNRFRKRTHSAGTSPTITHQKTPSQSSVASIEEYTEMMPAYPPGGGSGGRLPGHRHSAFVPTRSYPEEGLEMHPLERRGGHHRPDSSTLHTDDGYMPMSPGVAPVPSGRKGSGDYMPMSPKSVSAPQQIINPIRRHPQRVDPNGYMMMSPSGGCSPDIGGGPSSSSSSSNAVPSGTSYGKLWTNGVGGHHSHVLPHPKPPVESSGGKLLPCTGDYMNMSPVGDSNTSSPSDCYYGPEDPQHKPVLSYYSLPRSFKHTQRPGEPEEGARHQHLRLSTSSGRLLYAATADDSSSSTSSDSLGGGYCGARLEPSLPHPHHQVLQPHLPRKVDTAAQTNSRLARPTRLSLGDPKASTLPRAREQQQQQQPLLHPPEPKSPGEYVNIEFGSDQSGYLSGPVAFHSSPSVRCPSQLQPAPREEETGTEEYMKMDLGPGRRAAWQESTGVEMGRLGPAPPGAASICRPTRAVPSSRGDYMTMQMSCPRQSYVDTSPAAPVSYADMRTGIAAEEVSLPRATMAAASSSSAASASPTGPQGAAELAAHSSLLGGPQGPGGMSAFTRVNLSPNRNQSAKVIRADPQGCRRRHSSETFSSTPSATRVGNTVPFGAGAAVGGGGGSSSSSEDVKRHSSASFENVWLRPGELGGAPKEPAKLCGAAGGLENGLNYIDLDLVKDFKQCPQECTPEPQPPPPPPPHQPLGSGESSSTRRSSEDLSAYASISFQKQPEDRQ
Description: FIG. 4(A-F) illustrate: (A) Schematic diagram of linear and stapled WT and mutant peptides derived from p110α (SEQ ID NOs: 5, 6, 7 and 8). (B) Immunoblots of cell lysates immunoprecipitated with beads conjugated with anti-FLAG antibodies and then blotted with the indicated antibodies. Linear or stapled WT and mutant peptide were added into culture medium of the p110α E545K 3×FLAG KI cells for 16 hr. (C) Immunoblots of cell lysates immunoprecipitated with anti-p110α antibodies and then blotted with the indicated antibodies. Vaco481 CRC cells were treated with the stapled mutant peptides at the indicated concentration. (D) Immunoblots of cell lysates blotted with the indicated antibodies. The indicated cell lines were treated with the stapled mutant peptide. (E) Immunoblots of cell lysates blotted with the indicated antibodies. The indicated cancer cell lines were treated or untreated with stapled WT or mutant peptide at […] for 2 hr. (F) Immunoblots of cell lysates were blotted with the indicated antibodies. The indicated cancer cell lines were treated with or without […] of stapled mutant peptide for 2 hr.
For Co-immunoprecipitation (Co-IP), cells were harvested, washed with PBS, and then lysed in IP buffer (50 mMTris [pH 7.4], 150 mMNaCl, 5 mMEDTA [pH 8.0], 0.5% NP40, 1 mM PMSF, complete Protease Inhibitor Cocktail tablet [Roche]; supplemented with phosphatase inhibitors [1 mM Na3VO4, 20 mM NaF, 0.1 mM b-glycerophosphate, 20 mM sodium pyrophosphate] when necessary). For immunoblotting (IB) of phospho-specific proteins, unless stated otherwise, cells were lysed in urea buffer (100 mM NaH2PO4, 10 mM Tris-HCl, 8 M Urea, 1 mM Na3VO4, 20 mM NaF, 0.1 mM β-glycerophosphate, 20 mM sodium pyrophosphate, supplemented with complete Protease Inhibitor Cocktail tablet [Roche], pH 8.0). Lysates were then cleared by centrifugation (14,000 rpm, 10 min) and protein concentration in supernatants was determined with a BCA protein assay kit (Pierce, Rockford, Ill.). Equal amounts of total protein were used for IP or IB.

H2N-SEITEQEKD^549-FLW-S^553-HRHYC-COOH (SEITEQEK[S5]FLW[S5]HRHYC; staple 9-13; not fully specified (N-terminus, C-terminus); printed as H2N-SEITEQEKD549-FLW-S553-HRHYC-COOH; listed as Homo sapiens) [stapled WT peptide, stapled wild-type p110α counterpart of the stapled mutant peptide, used as control, reference compound]
xenograft tumor growth of HCT116 CRC cells [1]: neither the stapled WT nor the stapled mutant peptide inhibited
disruption of IRS1-p110α E545K interaction in DLD1 cells [2]: neither the linear mutant peptide nor the stapled WT peptide affected the interaction

H2N-SEITKQEK-D^549-FLW-S^553-HRHYC-COOH [stapled mutant peptide]
xenograft tumor growth of HCT116 CRC cells [1]: neither the stapled WT nor the stapled mutant peptide inhibited
disruption of IRS1-p110α E545K interaction in DLD1 cells [2]: effectively disrupted

Reference: patent US20140005119A1, “COMPOSITIONS AND METHODS FOR INHIBITING THE ACTIVITY OF P110a MUTANT PROTEINS” (Case Western Reserve University, priority 2012, published 2014)
